Paper PMC11291776, “The development of ^177Lu-DOTA-CC-PSMA following a unified “Click Chemistry” protocol of synthesizing metal nuclide-conjugated radiopharmaceuticals” (EJNMMI Radiopharmacy and Chemistry, 2024)

Assay: Pharmacokinetics (blood radioactivity after i.v. injection)
Type: in vivo
Details: healthy BALB/c male mice, i.v. 3.7 MBq, blood 2-240 min, DAS 2.0
Protocol: ^177Lu-DOTA-CC-PSMA (3.7 MBq in 100 µL) or ^177Lu-PSMA-617 (3.7 MBq in 100 µL) was administered intravenously via the tail into BALB/c male mice (n = 6), and a venous blood sample (5 µL) was collected from the tail end of each mouse at different time points after injection (2, 4, 6, 10, 15, 30, 60, 120, and 240 min). The radioactivity of the blood samples was measured by γ-counter, and the pharmacokinetics data were obtained using the DAS 2.0 software.

Compound `O=C([O-])CN1CCN(CC(=O)[O-])CCN(CC(=O)NCC2CCC(C(=O)N[C@@H](Cc3ccc4ccccc4c3)C(=O)NCCCC[C@H](NC(=O)N[C@@H](CCC(=O)O)C(=O)O)C(=O)O)CC2)CCN(CC(=O)[O-])CC1.[177Lu+3]` (stereo partly shown) [^177Lu-PSMA-617] has a blood clearance half-life of 17.18 min.
